According to patent US9476099B2 (TRUSTEES OF DARTMOUTH COLLEGE, priority 2012, dated 2016):

How the values were obtained:
NT2/D1-R1 cells = assay: Apoptosis by PARP cleavage and sub G1 DNA content; assay type: cell-based; conditions: cisplatin; cisplatin-resistant NT2/D1-R1
Experimental: (§1) Importantly, decitabine-mediated H2AX activation also occurs in the presence of the caspase 3 inhibitor (Z-VAD-FMK) at concentrations that inhibit PARP cleavage.
(§2) Cells were cultured in DMEM media (Gibco) with 10% FBS. Decitabine was added fresh each day. Lentiviral control cells and the stable shRNA DNMT3B knockdown cell line (NT2/D1-R1-sh84) were described previously (Beyrouthy et al. 2009. Cancer Res. 69:9360-9366). DNMT3B knockdown was greater than 90% as confirmed by western blot analysis. Cell proliferation and survival were assessed with the CELL-TITRE GLO assay (Promega). Cell cycle analysis with propidium iodine has been previously described (Kerley-Hamilton et al. 2005. Oncogene 24:6090-6100).
(§3) SYBR green-based real-time PCR (Applied Biosystems) was employed using the ddCT method normalized to GAPDH. For western blot analysis cells were lysed in radioimmune precipitation buffer and separated by SDS-PAGE. Antibodies to actin (sc01615, Santa Cruz), 139-H2AX (Cell Signaling), PARP (c-2-10, Biomol International) and p53 (D0-1, Santa Cruz) were used.

NT2/D1 cells [1] = assay: Gene expression microarray with PAM cluster analysis (Tables 1-5); assay type: cell-based, human
Experimental: The cisplatin treatment protocol has been previously described (Kerley-Hamilton et al. 2005. Oncogene 24:6090-6100).
The same effect was not observed in cells treated with cisplatin; gene expression levels were not dramatically altered in cisplatin-treated cells. […] The genes clustered into distinct patterns.
Next, partitioning around medoids (PAM) analysis was performed on the 1130 genes whose expression levels changed by 1.5-fold or greater as compared to control treatment. […] Changes in gene expression levels of representative genes for each cluster were confirmed in independent samples by real-time PCR (FIG. 10).
(§4) Expression analysis was performed on the […] HumanHT-12 v3 or […] HumanHT-12 v4 bead chip arrays ([…]) and scanned on the BeadArray Reader ([…]) according to manufacturer's instructions.

NT2/D1 cells [2] = assay: Cell-Titre Glo viable cell growth and survival, 3 day decitabine; assay type: cell-based; conditions: NT2/D1
Experimental: Indicated doses of decitabine were added fresh each day for three days to exponentially growing cultures. Viable cell growth and survival were measured. Data are normalized to no drug treatment. EC cells are NT2/D1, NT2D1/R1, 833K, 833KCP, and Tera-1. Data are the average of 3 experiments in biological duplicate except for MCF-7 cells, which were assayed twice. Error bars are standard deviation (S.D.).
Cell growth and viability of five EC cell lines (NT2/D1, NT2D1/R1, 833K, 833KCP, and Tera-1) were determined, including two cell lines that are cisplatin-resistant (NT2/D1-R1 and 833KCP). Three control somatic tumor cell lines were also tested (HCT116, MCF7 and U2OS). […] Viable cell growth and survival were measured using Cell-Titre Glo (Promega) assays. […] These higher values are similar to the values shown in FIG. 1 for somatic tumor cell lines (MCF7, U2OS and HCT116).
NT2/D1, NT2D1-R1, 833K, 833K-CP, Tera-1, U20S, and HCT116 cells were cultured in DMEM with 10% FBS supplemented with glutamine and antibiotics except for MCF7 cells that were cultured in F12-DMEM. The derivation of the NT2/D1-resistant NT2/D1-R1 cell line has been previously described (Curtin et al. 2001. Oncogene 20:2559-2569; Kerley-Hamilton et al. 2007. Biochim. Biophys. Acta 1769:209-219). Cells were treated with the indicated dosages of 5-azadeoxycytidine (5-aza-CdR) for 3 days. This drug was replenished each day. Cisplatin (Bristol Laboratories) treatments were performed at the concentrations and time points indicated. To assess cell proliferation and survival, CELL-TITRE GLO (Promega) assays were performed.
as §2

[3] = tested on: phosphorylated H2AX in NT2/D1-R1 cells; assay: DNA damage by induction of phosphorylated H2AX (western blot); assay type: cell-based; conditions: cisplatin
Source text: as §1, §3

NT2 cells = assay: Gene set enrichment analysis (GSEA) of microarray data (Table 6); assay type: cell-based, human; conditions: Gene Sets Enriched in NT2 Cells with Cisplatin Treatment (0.5 μM for 3 days)
Experimental: Gene set enrichment analysis (GSEA) was performed.
as §4

NT2/D1 cells [4] = assay: Apoptosis by PARP cleavage and sub G1 DNA content; assay type: cell-based; conditions: cisplatin 0.5 μM; NT2/D1 versus NT2/D1-R1
Experimental: as §2, §3

Which results are given for `N.N.[Cl][Pt][Cl]` [cisplatin]?
PARP cleavage (NT2/D1-R1 cells): does not induce PARP cleavage; Cluster 2: unique genes whose expression levels were increased only by cisplatin treatment (NT2/D1 cells [1]; 0.5 μM cisplatin 6 hours, 24 hour recovery): 81 genes; Cluster 3: genes upregulated by both decitabine treatment and cisplatin treatment (NT2/D1 cells [1]; 1.5-fold or greater): 71 genes; Cluster 5: genes down-regulated by both decitabine treatment and cisplatin treatment (NT2/D1 cells [1]; 1.5-fold or greater): 88 genes; effects on cell viability and proliferation (NT2/D1 cells [2]; after 1 day of cisplatin treatment): minimal; effects on cell viability and proliferation (NT2/D1 cells [2]; by day two of cisplatin treatment): robust anti-proliferation and cell death effects; induction of phospho-H2AX [3]: can induce phospho-H2AX; NES, AMIT_EGF_RESPONSE_120_MCF10A (NT2 cells): −2.2779; NES, AMIT_EGF_RESPONSE_480_HELA (NT2 cells): −2.5999; NES, AMUNDSON_DNA_DAMAGE_RESPONSE_TP53 (NT2 cells): −2.2828; NES, CONCANNON_APOPTOSIS_BY_EPOXOMICIN_UP (NT2 cells): −2.2899; NES, DACOSTA_UV_RESPONSE_VIA_ERCC3_UP (NT2 cells): −2.3411; NES, INGA_TP53_TARGETS (NT2 cells): −2.3095; NES, KANNAN_TP53_TARGETS_UP (NT2 cells): −2.5961; NES, KERLEY_RESPONSE_TO_CISPLATIN_UP (NT2 cells): −3.0393; NES, SCHAVOLT_TARGETS_OF_TP53_AND_TP63 (NT2 cells): −2.4114; NES, WEIGEL_OXIDATIVE_STRESS_RESPONSE (NT2 cells): −2.3010; apoptotic responses (PARP cleavage, sub G1 DNA content) (NT2/D1 cells [4]): induces these responses only in cisplatin-sensitive NT2/D1 cells
